In patent EP3398599A1, “COMPOSITIONS AND METHODS FOR PROPHYLAXIS AND TREATMENT OF ADDICTIONS” (priority 2009, dated 2010):

Test system: Long Evans rats
Experiment: Yohimbine-induced reinstatement of nicotine seeking
Type: in vivo
Details: yohimbine 2.0 mg/kg/ml; p<0.001
Procedure: Stress and anxiety are major factors in resuming nicotine use in former abstinent users. […] Briefly, following acquisition of a stable baseline of IV nicotine self-administration (30µg/0.1ml/infusion), male Long Evans rats (n=8) were subjected to an extinction period of 5 days.
Reinstatement experiments and relative drug treatments were performed every third day. Between reinstatements, extinction baseline was re-established.

COC(=O)[C@@H]1[C@H]2C[C@H]3c4[nH]c5ccccc5c4CCN3C[C@@H]2CC[C@@H]1O [yohimbine]
reinstatement of responding (nicotine seeking) compared to extinction: significant reinstatement of responding
